“And” between values parts separate entries of the source, which are not always exact repeats. Identical values can stand only once. “Also recorded” adds a separate entry of the source.
What was measured:
[1] = test system: Akt phosphorylation at Thr308 in HCT116 cells; experiment: AKT activation in HCT116 cells (Western blot); format: cell-based, human; settings: HCT116, 50 μM, 4 h, pAkt/Akt by Western blot
Experimental: Total proteins were quantified by bicinchoninic acid assay (23225, Thermo Fisher Scientific). Total 20 μg proteins were resolved in 8% SDS–PAGE, and then Akt phosphorylation was probed with primary antibodies against, phospho–Akt (Thr308) (4056) and Akt (9272) (Cell Signalling) and HRP-conjugated secondary antibody. The relative band intensities of Akt phosphorylation to total Akt were quantified with Image J software.

purified CYP3A4 = purified CYP3A4 (Homo sapiens, UniProt P08684); experiment: Spectral binding titration of purified CYP3A4; settings: 1 µM purified CYP3A4, pH 7.4, no binding = no spectral change up to 200 μM; for Kd: read-out: CYP3A4 Kd (spectral dissociation constant)
Experimental: Purified CYP3A4 enzymes were diluted to 1 µM in 100 mM potassium phosphate buffer (pH 7.4) and then divided into two glass cuvettes. […] The binding titration was analysed using GraphPad Prism software (GraphPad, Inc., La Jolla, CA, USA).

[2] = test system: IP7 synthesis in HCT116 cells; experiment: Quantification of intracellular inositol phosphates by HPLC in radiolabeled HCT116; format: cell-based, human; settings: HCT116, 50 μM, 4 h
Experimental: For HPLC analysis, 2 × 10^5 cells/60 mm dish of HCT116 were treated with 75 μCi [^3H] myo-inositol (NET1177001MC, PerkinElmer). After 3 days, soluble inositol polyphosphates from HCT116 (human colorectal cancer cell line) were extracted and analysed as previously described. Intracellular inositol phosphates were extracted with acid extraction buffer (1 M HClO4, 3 mM EDTA, and 0.1 mg/ml1 IP6), and neutralised with neutralisation buffer (1 M K2CO3 and 3 mM EDTA). The lysates were centrifuged for 10 min, and the soluble fraction was resolved by HPLC as described earlier. The lipid pellet was lysed with 0.1% Triton X-100 in NaOH overnight. Each fraction was mixed with Ultima-Flo AP liquid scintillation cocktail (6013599, PerkinElmer), and radioactivity was counted in a scintillation counter. Quantity of inositol phosphates was presented as total counts/min (CPM) normalised by total lipid contents.

human IP6K2 = target: T1, human IP6K2 (Homo sapiens, UniProt Q9UHH9); experiment: IP6K2 inhibition assay (ADP Glo kinase assay); format: biochemical; settings: purified human IP6K2, 10 μM IP6, 10 μM ATP, 8-dose, triplicate, mean ± SEM
T1 construct: made in house; host or cells: Sf9 insect cells (baculovirus)
T1 sequence (Q9UHH9 1-426): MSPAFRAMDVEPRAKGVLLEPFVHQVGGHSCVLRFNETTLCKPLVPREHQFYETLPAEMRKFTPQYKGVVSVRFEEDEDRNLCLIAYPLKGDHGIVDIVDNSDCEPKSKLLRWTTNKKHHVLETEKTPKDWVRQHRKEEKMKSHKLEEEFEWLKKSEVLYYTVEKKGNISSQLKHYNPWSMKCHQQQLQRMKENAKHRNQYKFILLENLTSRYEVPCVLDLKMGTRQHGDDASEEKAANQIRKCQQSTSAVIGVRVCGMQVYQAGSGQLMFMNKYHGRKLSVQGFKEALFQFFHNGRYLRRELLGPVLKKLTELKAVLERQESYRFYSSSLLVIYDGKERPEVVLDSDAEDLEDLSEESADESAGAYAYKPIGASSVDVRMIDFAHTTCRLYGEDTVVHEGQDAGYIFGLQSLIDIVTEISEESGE
Experimental: Full-length human IP6K2 cDNA was subcloned into pFASTBAC1 plasmid (Gibco) with an N-terminal FLAG epitope sequence, and baculovirus was generated according to the manufacturer’s instructions. Sf9 insect cells were infected with baculovirus and incubated for 72 h. The cells were resuspended in lysis buffer [20 mM Tris–HCl (pH 7.9), 500 mM NaCl, 4 mM MgCl2, 0.4 mM EDTA, 2 mM DTT, 20% glycerol, 1 mM PMSF, and protease inhibitor cocktail (Roche)] and then disrupted with a Dounce homogeniser (pestle A, 3 series of 10 strokes with 10 min interval).
IP6K2 activity was measured using ADP Glo assay kit (Promega). All kinase assays were performed in low volume 384-well white plates (784075, Greiner-bioone) with a final volume of 5 μL. The reaction buffer contained 2 ng Flag-hIP6K2, 10 μM IP6, and 10 μM ATP in kinase buffer (50 mM Tris, 10 mM MgCl2, 2.5 mM DTT, 0.02% Triton-X-100, pH 6.8)[26]. For dose-dependent inhibition assay, 8 serial 2-fold dilutions of test compounds were prepared in DMSO. The final DMSO concentration was 5% in each reaction. The test compounds (5X, 25% DMSO in 1X kinase buffer) were dispensed to each well, and 2.5 X IP6K2 in kinase buffer were added. After 15 min incubation at room temperature, 2.5 X concentrations of IP6 and ATP were added to the plate. The reaction plate was incubated in a 37 °C incubator for 30 min. Next, the reactions were quenched with 5 μL of ADP Glo reagent for 40 min to deplete the remaining ATP. To convert the remaining ADP to ATP, 10 μl of detection reagent were added and incubated for 30–60 min. The luminescence of the final reactants was measured using the Mithras LB940 plate reader from Berthold. Samples were run in triplicate and the activity (%) was calculated using the following equations; Activity (%) = 100 × (μexperimental–μnegative)/(μpositive–μnegative). Negative control was DSMO-treated reaction. IC50 value was estimated using a logistic regression model with R package.

[3] = target: T2, recombinant microsomal CYP3A4 (Homo sapiens, UniProt P08684); experiment: In vitro CYP450 activity assay (Vivid CYP450 Blue screening kit, BOMCC); format: in vitro ADME; settings: recombinant CYP3A4, 100 nM treatment for 10 min, mean ± SEM
T2 construct: purchased Invitrogen P2858; host or cells: BACULOSOMES (microsomes of baculovirus-infected insect cells: own knowledge of the product)
T2 sequence (P08684 whole entry): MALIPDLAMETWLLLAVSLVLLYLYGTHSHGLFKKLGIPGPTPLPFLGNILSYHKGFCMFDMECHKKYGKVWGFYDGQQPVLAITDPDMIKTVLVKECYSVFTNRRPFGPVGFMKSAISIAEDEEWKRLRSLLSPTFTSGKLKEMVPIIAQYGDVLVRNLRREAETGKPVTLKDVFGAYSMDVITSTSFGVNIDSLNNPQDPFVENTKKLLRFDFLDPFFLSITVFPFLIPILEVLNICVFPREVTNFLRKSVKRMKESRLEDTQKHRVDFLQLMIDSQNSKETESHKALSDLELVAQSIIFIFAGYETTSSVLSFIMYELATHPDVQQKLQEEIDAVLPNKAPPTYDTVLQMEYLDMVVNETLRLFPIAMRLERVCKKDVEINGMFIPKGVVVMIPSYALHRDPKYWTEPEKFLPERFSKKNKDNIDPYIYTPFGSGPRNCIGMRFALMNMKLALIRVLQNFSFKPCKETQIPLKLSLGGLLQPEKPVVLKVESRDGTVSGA
Experimental: The activity of CYP3A4 was measured using the Vivid® CYP450 Blue screening kit (Cat No. P2858 for 3A4, Invitrogen). […] The system consisted of 100 μL of the final volume. The CYP450 substrate Vivid BOMCC and positive control inhibitor (ketoconazole), were dissolved in acetonitrile. […] The mixture containing test drugs, Vivid® CYP450 BACULOSOMES reagent, and Vivid® Regeneration system (Total 90 μL) was dispensed into a 96-well black plate and incubated at room temperature for 20 min. After adding 10 μL of Vivid® CYP450 reaction buffer (100 μM NADP, 10 μM Vivid® BOMCC), the mixture was incubated for 10 min at room temperature. […] The CYP450 3A4 inhibitory efficiency (%) of the test drug was calculated by comparing the reaction rates of the test compounds with the reaction rate of the positive control group (Ketoconazole) and the negative control group (0.1% Acetonitrile, 0.1% DMSO) using the measured fluorescence values.

purified CYP3A4, sequence (P08684 whole entry): as above

Fc1ccc(CNc2nc(NCc3ncc[nH]3)c3nc[nH]c3n2)cc1 [Compound 15, N^6-((1H-imidazol-2-yl)methyl)-N^2-(4-fluorobenzyl)-9H-purine-2,6-diamine]
increase in Akt phosphorylation at Thr308 compared to vehicle treatment [1]: more than 1.5 fold | CYP3A4 Kd (spectral dissociation constant) (purified CYP3A4): did not display any binding spectral change; also recorded: without binding to CYP3A4; also recorded: No binding^d | IP4, IP5, and IP6 levels [2]: without notable changes | cellular IP7 synthesis (effect in words) [2]: reduced cellular IP7 synthesis | IC50 (human IP6K2): 24.7 ± 0.2 µM

Clc1ccc(CNc2nc(NCc3ncc[nH]3)c3nc[nH]c3n2)cc1 [Compound 16, N^6-((1H-imidazol-2-yl)methyl)-N^2-(4-chlorobenzyl)-9H-purine-2,6-diamine]
Kd (purified CYP3A4): 40.5 ± 8 µM | IC50 (human IP6K2): 19.9 ± 0.1 µM

CS(=O)(=O)c1ccc(CNc2nc(NCc3ccc(Cl)cc3)nc3[nH]cnc23)cc1 [Compound 8, N^2-(4-chlorobenzyl)-N^6-(4-(methylsulfonyl)benzyl)-9H-purine-2,6-diamine]
Kd (purified CYP3A4): 14.4 ± 3.3 µM

CS(=O)(=O)c1ccc(CNc2nc(NCc3ccc(F)cc3)nc3[nH]cnc23)cc1 [Compound 7, N^2-(4-fluorobenzyl)-N^6-(4-(methylsulfonyl)benzyl)-9H-purine-2,6-diamine]
Kd (purified CYP3A4): 28.8 ± 2.7 µM | IC50 (human IP6K2): 7.3 ± 0.5 µM

FC(F)(F)c1cccc(CNc2nc(NCc3ncc[nH]3)c3nc[nH]c3n2)c1 [Compound 14, N^6-((1H-imidazol-2-yl)methyl)-N^2-(3-(trifluoromethyl)benzyl)-9H-purine-2,6-diamine]
Kd (purified CYP3A4): 22.2 ± 4.5 µM | IC50 (human IP6K2): 34.7 ± 0.7 µM

CS(=O)(=O)c1ccc(CNc2nc(NCc3cccc(C(F)(F)F)c3)nc3[nH]cnc23)cc1 [Compound 6, N^6-(4-(methylsulfonyl)benzyl)-N^2-(3-(trifluoromethyl)benzyl)-9H-purine-2,6-diamine]
Kd (purified CYP3A4): 24.8 ± 4.3 µM | IC50 (human IP6K2): 4.6 ± 0.2 µM

FC(F)(F)c1cccc(CNc2nc(NCc3cccnc3)c3nc[nH]c3n2)c1 [Compound 10, N^6-(pyridin-3-ylmethyl)-N^2-(3-(trifluoromethyl)benzyl)-9H-purine-2,6-diamine]
Kd (purified CYP3A4): 1.4 ± 0.5 µM | IC50 (human IP6K2): 5.3 ± 0.3 µM

O=[N+]([O-])c1ccc(CNc2nc(NCc3cccnc3)c3nc[nH]c3n2)cc1 [Compound 13, N^2-(4-nitrobenzyl)-N^6-(pyridin-3-ylmethyl)-9H-purine-2,6-diamine]
Relative 3A4 inhibition (% of TNP) [3]: 126 ± 1 % of TNP | Kd (purified CYP3A4): 2 ± 0.5 µM | IC50 (human IP6K2): 3.3 ± 0.8 µM | melting point: 251 °C

O=[N+]([O-])c1ccc(CNc2nc(NCc3nc4ccccc4[nH]3)c3nc[nH]c3n2)cc1 [Compound 20, N^6-((1H-benzo[d]imidazol-2-yl)methyl)-N^2-(4-nitrobenzyl)-9H-purine-2,6-diamine]
Relative 3A4 inhibition (% of TNP) [3]: 65.7 ± 1.97 % of TNP | increase in Akt phosphorylation at Thr308 compared to vehicle treatment [1]: more than 1.5 fold | CYP3A4 Kd (spectral dissociation constant) (purified CYP3A4): did not show any spectral dissociation constant value; also recorded: without binding to CYP3A4; also recorded: No binding^d | IP4, IP5, and IP6 levels [2]: without notable changes | cellular IP7 synthesis (effect in words) [2]: reduced cellular IP7 synthesis | IC50 (human IP6K2): 21.8 ± 0.3 µM | melting point: 153 °C

Fc1ccc(CNc2nc(NCc3cccnc3)c3nc[nH]c3n2)cc1 [Compound 11, N^2-(4-fluorobenzyl)-N^6-(pyridin-3-ylmethyl)-9H-purine-2,6-diamine]
Kd (purified CYP3A4): 3 ± 0.6 µM | IC50 (human IP6K2): 5.9 ± 0.2 µM

Clc1ccc(CNc2nc(NCc3cccnc3)c3nc[nH]c3n2)cc1 [Compound 12, N^2-(4-chlorobenzyl)-N^6-(pyridin-3-ylmethyl)-9H-purine-2,6-diamine]
Kd (purified CYP3A4): 1.8 ± 0.6 µM

FC(F)(F)c1cccc(CNc2nc(NCc3nc4ccccc4[nH]3)c3nc[nH]c3n2)c1 [Compound 17, N^6-((1H-benzo[d]imidazol-2-yl)methyl)-N^2-(3-(trifluoromethyl)benzyl)-9H-purine-2,6-diamine]
Relative 3A4 inhibition (% of TNP) [3]: 116 ± 3 % of TNP | Kd (purified CYP3A4): 7.9 ± 0.8 µM | IC50 (human IP6K2): 12.6 ± 0.4 µM | melting point: 289 °C

CS(=O)(=O)c1ccc(CNc2nc(NCc3ccc([N+](=O)[O-])cc3)nc3[nH]cnc23)cc1 [Compound 9, N^6-(4-(methylsulfonyl)benzyl)-N^2-(4-nitrobenzyl)-9H-purine-2,6-diamine]
increase in Akt phosphorylation at Thr308 compared to vehicle treatment [1]: more than 1.5 fold | CYP3A4 Kd (spectral dissociation constant) (purified CYP3A4): did not show any binding spectral change; also recorded: without binding to CYP3A4; also recorded: No binding^d | IP4, IP5, and IP6 levels [2]: without notable changes | cellular IP7 synthesis (effect in words) [2]: reduced cellular IP7 synthesis | decrease of cellular IP7 synthesis compared to DMSO [2]: ~44% | IC50 (human IP6K2): 16 µM and 16.8 µM

Clc1ccc(CNc2nc(NCc3nc4ccccc4[nH]3)c3nc[nH]c3n2)cc1 [Compound 19, N^6-((1H-benzo[d]imidazol-2-yl)methyl)-N^2-(4-chlorobenzyl)-9H-purine-2,6-diamine]
Relative 3A4 inhibition (% of TNP) [3]: 120 ± 0.66 % of TNP | Kd (purified CYP3A4): 16.9 ± 3.7 µM | IC50 (human IP6K2): 19.3 ± 0.27 µM | melting point: 160 °C

Fc1ccc(CNc2nc(NCc3nc4ccccc4[nH]3)c3nc[nH]c3n2)cc1 [Compound 18, N^6-((1H-benzo[d]imidazol-2-yl)methyl)-N^2-(4-fluorobenzyl)-9H-purine-2,6-diamine]
Relative 3A4 inhibition (% of TNP) [3]: 120 ± 1 % of TNP | Kd (purified CYP3A4): 11.1 ± 1 µM | IC50 (human IP6K2): 13.2 ± 0.4 µM | melting point: 287 °C
